Data published in patent US8772499B2, “TRPV3 modulators” (AbbVie Inc., priority 2011, dated 2014).
Like-named read-outs stand apart in the source and are kept apart here.

What was measured:
[1] = In vitro rat microsomal stability assay; type: in vitro ADME, rat (Sprague-Dawley); conditions: for RAT MICROSOMAL STABILITY (% REMAINING AFTER 30 MINUTES): Sprague-Dawley, microsomes, 0.5 h, 0.5 μM, pH 7.4
Outline: (§1)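 Compound incubated at 37 °C with NADPH-supplemented liver microsomes, either human or from Sprague-Dawley rat, to assess metabolic stability.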

human TRPV3 = biological target: T1, human TRPV3 (Homo sapiens, UniProt Q8NET8); assay: In vitro antagonism of recombinant human TRPV3 activation (FLIPR Tetra calcium assay); type: cell-based; conditions: HEK293 cells stably expressing human TRPV3, agonist 2-APB at 80 μM
T1 construct: expressed in transfected cells
T1 sequence (Q8NET8 1-790): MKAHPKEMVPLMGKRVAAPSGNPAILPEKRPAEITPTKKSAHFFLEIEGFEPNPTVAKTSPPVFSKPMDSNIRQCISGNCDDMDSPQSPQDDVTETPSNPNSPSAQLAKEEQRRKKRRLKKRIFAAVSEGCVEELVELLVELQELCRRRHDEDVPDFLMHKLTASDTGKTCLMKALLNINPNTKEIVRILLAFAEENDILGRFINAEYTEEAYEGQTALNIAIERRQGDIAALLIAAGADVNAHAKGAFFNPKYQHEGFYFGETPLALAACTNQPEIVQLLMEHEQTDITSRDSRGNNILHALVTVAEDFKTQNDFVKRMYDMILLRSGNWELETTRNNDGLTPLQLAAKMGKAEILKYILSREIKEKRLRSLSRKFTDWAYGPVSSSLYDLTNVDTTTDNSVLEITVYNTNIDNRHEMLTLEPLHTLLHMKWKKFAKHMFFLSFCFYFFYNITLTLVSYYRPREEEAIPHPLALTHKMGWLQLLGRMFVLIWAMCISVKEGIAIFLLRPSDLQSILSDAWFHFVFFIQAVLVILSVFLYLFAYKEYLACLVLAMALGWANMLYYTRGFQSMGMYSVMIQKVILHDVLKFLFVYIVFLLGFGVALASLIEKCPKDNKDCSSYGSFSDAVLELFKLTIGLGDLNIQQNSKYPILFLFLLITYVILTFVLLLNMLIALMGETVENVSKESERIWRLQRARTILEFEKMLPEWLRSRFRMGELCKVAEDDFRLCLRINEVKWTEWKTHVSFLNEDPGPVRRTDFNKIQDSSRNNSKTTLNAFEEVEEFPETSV
Outline: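 Calcium flux read over a 10 min run: compound added at 10 s to Calcium-4-loaded human TRPV3-HEK293 cells, agonist 2-APB (80 μM, its EC80) after 3 min. IC50 derived from peak-minus-baseline signal as percentage of uninhibited 2-APB response, typically averaged over at least two runs.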

[2] = In vitro human microsomal stability assay; type: in vitro ADME; conditions: for HUMAN MICROSOMAL STABILITY (% REMAINING AFTER 30 MINUTES): microsomes, 0.5 h, 0.5 μM, pH 7.4
Outline: as §1

[3] = actual measured value shown parenthetically, in most cases average of at least two runs, read-out: IC50
[4] = reported range, read-out: IC50 (range class)

| Compound | RAT MICROSOMAL STABILITY (% REMAINING AFTER 30 MINUTES) [1] [%] | IC50 (human TRPV3; [3]) [µM] | HUMAN MICROSOMAL STABILITY (% REMAINING AFTER 30 MINUTES) [2] [%] | IC50 (human TRPV3; [4]) [µM] | RAT […] (% REMAINING AFTER 30 MINUTES) ([1]; rat liver microsomes (Sprague-Dawley), 0.5 μM substrate, 0.25 mg/mL microsomal protein, pH 7.4, 37° C., NADPH, 30 minutes) [%] | HUMAN […] (% REMAINING AFTER 30 MINUTES) ([2]; human liver microsomes, 0.5 μM substrate, 0.25 mg/mL microsomal protein, pH 7.4, 37° C., NADPH, 30 minutes) [%] |
| --- | --- | --- | --- | --- | --- | --- |
| OC(c1ccccn1)C1(c2ccc(F)c(F)c2)CCCO1 (single isomer, unassigned) [Example 109, (syn)-[2-(3,4-difluorophenyl)tetrahydrofuran-2-yl](pyridin-2-yl)methanol] | 0.74 | 5.81 | 45 | – | – | – |
| OC1CC(c2ccc(OC(F)(F)F)cc2)(C(O)c2ccccn2)C1 (single isomer, unassigned) [Example 132] | 72 | 9.33 | 81 | – | – | – |
| OC1CC(c2ccc(C(F)(F)F)cc2)([C@@H](O)c2ccccn2)C1 (mixture of isomers) [Example 199, 3-[(R)-hydroxy(pyridin-2-yl)methyl]-3-[4-(trifluoromethyl)phenyl]-cyclobutanol] | >85 | > 20 | >85 | > 20 | – | – |
| OC(C1CCCc2cccnc21)C1(c2ccc(F)c(F)c2)CCC1 (single isomer, unassigned) [Example 169, (anti)-[1-(3,4-difluorophenyl)cyclobutyl][5,6,7,8-tetrahydroquinolin-8-yl]-methanol] | <0.01 | 5.82 | <0.01 | – | – | – |
| OC(C1CCCc2cccnc21)C1(c2ccc(OC(F)(F)F)cc2)CCC1 (single isomer, unassigned) [Example 178, (syn)-5,6,7,8-tetrahydroquinolin-8-yl{1-[4-(trifluoromethoxy)phenyl]-cyclobutyl}methanol] | <0.01 | > 20 | 9.2 | > 20 | – | – |
| OC(C1CCc2cccnc21)C1(c2cccc(C(F)(F)F)c2)CCC1 (stereo not drawn) [Example 186, (syn)-6,7-dihydro-5H-cyclopenta[b]pyridin-7-yl{1-[3-(trifluoromethyl)-phenyl]cyclobutyl}methanol] | <0.01 | > 20 | 0.18 | > 20 | – | – |
| Nc1cccnc1C(O)C1(c2ccc(C(F)(F)F)cc2)CCC1 (stereo not shown) [Example 127, (3-aminopyridin-2-yl) {1-[4-(trifluoromethyl)phenyl]cyclobutyl}methanol] | 1.1 | 11.6 | 51 | – | – | – |
| OC(C1CCc2cccnc21)C1(c2cccc(OC(F)(F)F)c2)CCC1 (stereo not drawn) [Example 189, (anti)-6,7-dihydro-5H-cyclopenta[b]pyridin-7-yl{1-[3-(trifluoromethoxy)-phenyl]cyclobutyl}methanol] | <0.01 | > 20 | 0.65 | > 20 | – | – |
| OC(C1CCc2cccnc21)C1(c2cccc(C(F)(F)F)c2)CCC1 (stereo not drawn) [Example 185, (anti)-6,7-dihydro-5H-cyclopenta[b]pyridin-7-yl{1-[3-(trifluoromethyl)-phenyl]cyclobutyl}methanol] | – | > 20 | – | > 20 | <0.01 | 0.39 |
| CC(C)(C)OC(=O)N1CCC(C2(C(O)c3ccccn3)CCC2)CC1 (stereo not shown) [Example 279, tert-butyl 4-{1-[hydroxy(pyridin-2-yl)methyl]cyclobutyl}piperidine-1-carboxylate] | <0.01 | 7.5 | 22 | – | – | – |
| OC(C1CCCc2cccnc21)C1(c2cccc(C(F)(F)F)c2)CCC1 (single isomer, unassigned) [Example 180, (syn)-5,6,7,8-tetrahydroquinolin-8-yl{1-[3-(trifluoromethyl)phenyl]-cyclobutyl}methanol] | <0.01 | > 20 | <0.01 | > 20 | – | – |
| OC(c1ccccn1)C1(c2ccc(C(F)(F)F)cn2)CC(F)(F)C1 (stereo not shown) [Example 137, {3,3-difluoro-1-[5-(trifluoromethyl)pyridin-2-yl]cyclobutyl}(pyridin-2-yl)-methanol] | >85 | 4.87 | 77 | – | – | – |
| OC(C1CCc2cccnc21)C1(c2ccc(OC(F)(F)F)cc2)CCC1 (stereo not drawn) [Example 175, (anti)-6,7-dihydro-5H-cyclopenta[b]pyridin-7-yl{1-[4-(trifluoromethoxy)-phenyl]cyclobutyl}methanol] | <0.01 | > 20 | 29 | > 20 | – | – |

Stronger by IC50 (human TRPV3; [3]), values ahead:

| RAT MICROSOMAL STABILITY (% REMAINING AFTER 30 MINUTES) [1] [%] | IC50 (human TRPV3; [3]) [µM] | HUMAN MICROSOMAL STABILITY (% REMAINING AFTER 30 MINUTES) [2] [%] | IC50 (human TRPV3; [4]) [µM] | Compound | RAT […] (% REMAINING AFTER 30 MINUTES) ([1]; rat liver microsomes (Sprague-Dawley), 0.5 μM substrate, 0.25 mg/mL microsomal protein, pH 7.4, 37° C., NADPH, 30 minutes) [%] | HUMAN […] (% REMAINING AFTER 30 MINUTES) ([2]; human liver microsomes, 0.5 μM substrate, 0.25 mg/mL microsomal protein, pH 7.4, 37° C., NADPH, 30 minutes) [%] |
| --- | --- | --- | --- | --- | --- | --- |
| 17 | 0.54 | 4.0 | – | O[C@H](c1ccccn1)C1(c2ccc(Cl)c(Cl)c2)CC1 [Example 231, (S)-[1-(3,4-dichlorophenyl)cyclopropyl](pyridin-2-yl)methanol] | – | – |
| <0.01 | 1.24 | 32 | – | COC1CC(c2ccc(Cl)c(Cl)c2)([C@H](O)c2ccccn2)C1 (mixture of isomers) [Example 151, (S)-[1-(3,4-dichlorophenyl)-3-methoxycyclobutyl](pyridin-2-yl)methanol] | – | – |
| 77 | 3.6 | 80 | – | CC1(O)CC(c2cccc(C(F)(F)F)c2)(C(O)c2ccccn2)C1 (single isomer, unassigned) [Example 244] | – | – |
| 2.3 | 0.35 | 1.2 | – | OC(c1ccccn1)C1(c2cccc(C(F)(F)F)c2)CCC1 (stereo not shown) [Example 6, pyridin-2-yl{1-[3-(trifluoromethyl)phenyl]cyclobutyl}methanol] | – | – |
| <0.01 | 1.95 | 9.0 | – | OC(c1ccccn1)C1(C2CCC(C(F)(F)F)CC2)CCC1 (stereo not shown) [Example 280, pyridin-2-yl{1-[4-(trifluoromethyl)cyclohexyl]cyclobutyl}methanol] | – | – |
| 56 | 1.8 | 83 | – | N[C@@H]1CCC[C@@H]1[C@@H](O)C1(c2ccc(OC(F)(F)F)cc2)CCC1 [Example 221, (R)-[(1S,2R)-2-aminocyclopentyl]{1-[4-(trifluoromethoxy)phenyl]-cyclobutyl}methanol] | – | – |
| 5.4 | 0.56 | 19 | – | OC(c1ccccn1)C1(c2nc3ccc(Cl)cc3s2)CCC1 (stereo not shown) [Example 292, [1-(6-chloro-1,3-benzothiazol-2-yl)cyclobutyl](pyridin-2-yl)methanol] | – | – |
| 18 | 0.83 | 41 | – | OC(c1ccccn1)C1(c2ccc(Cl)c(C(F)(F)F)c2)CC(F)(F)C1 (stereo not shown) [Example 138, {1-[4-chloro-3-(trifluoromethyl)phenyl]-3,3-difluorocyclobutyl}(pyridin-2-yl)methanol] | – | – |
| 78 | 0.23 | 56 | – | O[C@H](c1ccccn1)C1(c2ccc(C(F)(F)F)cc2)CC(F)(F)C1 [Example 154, (S)-{3,3-difluoro-1-[4-(trifluoromethyl)phenyl]cyclobutyl}(pyridin-2-yl)-methanol] | – | – |
| 3.9 | 2.87 | >85 | – | NC1CCCCC1C(O)C1(c2cccc(C(F)(F)F)c2)CCC1 (stereo not shown) [Example 212, (2-aminocyclohexyl) {1-[3-(trifluoromethyl)phenyl]cyclobutyl}methanol] | – | – |
| 1.3 | 1.18 | 21 | – | OC(c1ccccn1)C1(c2ccc(Cc3ccccc3)cc2)CCC1 (stereo not shown) [Example 25, [1-(4-benzylphenyl)cyclobutyl](pyridin-2-yl)methanol] | – | – |
